# Legend:
# MMP-2 [1] = target: T1, MMP-2 (Homo sapiens, UniProt P08253); test: K(obs) of individual phage substrates (set of 1369); assay type: biochemical; conditions: MMP2
# T1 sequence (P08253 110-660): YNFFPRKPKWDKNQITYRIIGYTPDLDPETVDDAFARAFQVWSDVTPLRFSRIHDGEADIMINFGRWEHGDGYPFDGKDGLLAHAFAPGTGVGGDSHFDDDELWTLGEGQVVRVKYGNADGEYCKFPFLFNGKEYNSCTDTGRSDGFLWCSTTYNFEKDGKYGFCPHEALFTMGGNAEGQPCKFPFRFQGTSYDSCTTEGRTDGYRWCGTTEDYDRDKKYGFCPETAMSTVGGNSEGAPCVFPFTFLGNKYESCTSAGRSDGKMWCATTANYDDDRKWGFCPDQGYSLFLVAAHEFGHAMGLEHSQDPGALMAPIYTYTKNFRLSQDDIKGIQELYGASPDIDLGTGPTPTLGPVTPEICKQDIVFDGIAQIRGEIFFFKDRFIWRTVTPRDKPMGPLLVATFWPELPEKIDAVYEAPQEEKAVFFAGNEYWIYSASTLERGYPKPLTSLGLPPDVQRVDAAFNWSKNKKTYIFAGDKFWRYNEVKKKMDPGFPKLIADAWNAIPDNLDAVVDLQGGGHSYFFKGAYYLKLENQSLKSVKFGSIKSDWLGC
# MMP-9 = MMP-9 (Homo sapiens, UniProt P14780); test: as above; assay type: biochemical; conditions: MMP9
# MMP-2 [2] = test: Substrate phage display with NGS: relative probability (RP) of P3-P1' tetramer clusters; assay type: biochemical, human; conditions: MMP2;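 note: ratio of tetramer probability after protease selection to that in naive phage library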
# [3] = individual phage substrates, set of 1369 peptides, cleavage position marked by hyphen in sequence
# [4] = individual phage substrates, set of 1369 peptides, hyphen in sequence marks cleavage position
# [5] = RP of the P3-P1' tetramer contained in the substrate (substrate phage display with NGS)
# [6] = individual phage substrate of the set of 1369 peptides, cleavage position marked by '-'
# [7] = individual phage substrate of the set of 1369 peptides, dash in the sequence marks the cleavage position
# [8] = RP of the P3-P1' tetramer contained in the substrate
# MMP-9, sequence (P14780 94-707): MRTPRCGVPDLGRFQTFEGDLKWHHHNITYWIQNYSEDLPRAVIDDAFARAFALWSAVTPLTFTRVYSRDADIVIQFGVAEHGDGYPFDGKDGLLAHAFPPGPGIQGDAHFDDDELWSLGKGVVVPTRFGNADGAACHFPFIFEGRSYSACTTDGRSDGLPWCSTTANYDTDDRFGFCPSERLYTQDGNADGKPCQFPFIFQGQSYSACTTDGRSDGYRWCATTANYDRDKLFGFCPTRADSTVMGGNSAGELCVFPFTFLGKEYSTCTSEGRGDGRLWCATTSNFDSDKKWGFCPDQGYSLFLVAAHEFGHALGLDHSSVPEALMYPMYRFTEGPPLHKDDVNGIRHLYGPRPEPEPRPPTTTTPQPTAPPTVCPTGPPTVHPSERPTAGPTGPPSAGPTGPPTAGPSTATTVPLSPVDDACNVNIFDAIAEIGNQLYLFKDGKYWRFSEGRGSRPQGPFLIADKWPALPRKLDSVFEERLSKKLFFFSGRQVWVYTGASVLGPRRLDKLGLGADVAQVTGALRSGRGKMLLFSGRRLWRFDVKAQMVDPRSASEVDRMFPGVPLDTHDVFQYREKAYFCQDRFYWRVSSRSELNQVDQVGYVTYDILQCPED
Substance,Kobs (MMP-2 [1]; [3]),Kobs (MMP-9; [4]),relative probability (RP) (MMP-2 [2]; [5]),Kobs (MMP-2 [1]; [6]),Kobs (MMP-9; [7]),relative probability (RP) (MMP-2 [2]; [8])
AVLSN-LTASG,8321.48 M⁻¹ s⁻¹,261.974 M⁻¹ s⁻¹,32.5007,,,
AYGSH-LTASG,,,,3253.29 M⁻¹ s⁻¹,654.784 M⁻¹ s⁻¹,4.2785
DAVYG-LTASG,,,,1925.41 M⁻¹ s⁻¹,2615.58 M⁻¹ s⁻¹,17.3788
DKLAS-LTASG,,,,12792.1 M⁻¹ s⁻¹,0 M⁻¹ s⁻¹,31.1996
DLPAG-LTASG,,,,12792.1 M⁻¹ s⁻¹,8321.48 M⁻¹ s⁻¹,36.0156
DNTFH-LTASG,,,,142.481 M⁻¹ s⁻¹,0 M⁻¹ s⁻¹,0.1298
DPWRA-LTASG,,,,6396.07 M⁻¹ s⁻¹,6396.07 M⁻¹ s⁻¹,22.4074
DRPNY-LTASG,,,,4082.43 M⁻¹ s⁻¹,1196.62 M⁻¹ s⁻¹,17.2533
DRQLS-LTASG,,,,84.609 M⁻¹ s⁻¹,0 M⁻¹ s⁻¹,0.4979
DSLAW-LTASG,10866.7 M⁻¹ s⁻¹,1561.44 M⁻¹ s⁻¹,22.0358,,,
EHAWN-LTASG,,,,2218.08 M⁻¹ s⁻¹,2280.5 M⁻¹ s⁻¹,14.0049
EIWLP-ITASG,951.362 M⁻¹ s⁻¹,142.481 M⁻¹ s⁻¹,0.6666,,,
ELMLS-MTASG,2157.02 M⁻¹ s⁻¹,142.481 M⁻¹ s⁻¹,5.234,,,
ELSLA-LTASG,,,,1925.41 M⁻¹ s⁻¹,1112.44 M⁻¹ s⁻¹,6.019
ELVRS-LTASG,,,,12792.1 M⁻¹ s⁻¹,12792.1 M⁻¹ s⁻¹,12.3051
EMSWG-LTASG,0 M⁻¹ s⁻¹,231.616 M⁻¹ s⁻¹,0.1389,,,
EMYGN-MTASG,5667.28 M⁻¹ s⁻¹,451.441 M⁻¹ s⁻¹,13.8836,,,
ENFLH-LTASG,142.481 M⁻¹ s⁻¹,27.918 M⁻¹ s⁻¹,0.8093,,,
EQAWY-LTASG,1154.21 M⁻¹ s⁻¹,726.013 M⁻¹ s⁻¹,0.09636,,,
EQLSF-LTASG,12792.1 M⁻¹ s⁻¹,0 M⁻¹ s⁻¹,14.5333,,,
ERFSH-LTASG,,,,2344.36 M⁻¹ s⁻¹,231.616 M⁻¹ s⁻¹,16.5216
ERIYA-LTASG,2687.73 M⁻¹ s⁻¹,7386.83 M⁻¹ s⁻¹,6.967,,,
ERSLA-WTASG,,,,2157.02 M⁻¹ s⁻¹,113.394 M⁻¹ s⁻¹,18.2943
ERSLN-LTASG,,,,726.013 M⁻¹ s⁻¹,1239.69 M⁻¹ s⁻¹,3.302
ERVWA-ITASG,,,,1239.69 M⁻¹ s⁻¹,3438.54 M⁻¹ s⁻¹,3.219
ESFAA-LTASG,,,,12792.1 M⁻¹ s⁻¹,56.119 M⁻¹ s⁻¹,18.8584
